Measured values taken from patent US10968193B2, “Antidiabetic bicyclic compounds” (Merck Sharp & Dohme Corp., priority 2014, dated 2021).

What follows are molecules tested against T1, human GPR40 (Homo sapiens, UniProt O14842) (assay: Inositol Phosphate Turnover (IP1) Assay 1). Details: HEK cells stably expressing human GPR40; 15,000 cells per well; compound transferred via pocket tip; CisBio IP-One kit.
T1 construct: expressed in transfected cells; host or cells: HEK cells stably expressing the aequorin reporter
T1 sequence (O14842 whole entry): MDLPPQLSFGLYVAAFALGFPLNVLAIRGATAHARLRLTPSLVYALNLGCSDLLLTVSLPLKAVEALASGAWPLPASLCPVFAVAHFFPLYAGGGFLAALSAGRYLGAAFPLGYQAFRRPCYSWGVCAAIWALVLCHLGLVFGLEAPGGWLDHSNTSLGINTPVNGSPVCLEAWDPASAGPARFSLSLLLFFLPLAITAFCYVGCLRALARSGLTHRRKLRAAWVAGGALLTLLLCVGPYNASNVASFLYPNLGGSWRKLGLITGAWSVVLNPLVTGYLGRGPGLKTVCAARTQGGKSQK
Type: cell-based
Procedure: Human and mouse GPR40 stable cell-lines were generated in CHO cells stably expressing NFAT BLA (Beta-lactamase). A human GPR40 stable cell-line was generated in HEK cells stably expressing the aequorin expressing reporter. The expression plasmids were transfected using lipofectamine (Life Technologies) following manufacturer's instructions. Stable cell-lines were generated following drug selection.
Inositol Phosphate Turnover (IP1) Assay 1:
The assay was performed in 384-well format. HEK cells stably expressing human GPR40 were plated at 15,000 cells per well in growth medium (DMEM/10% fetal calf serum). Cell plates were then incubated 16 hours at 37 degrees in a 5% CO2 incubator.
Measurement of Inositol Phosphate Turnover (IP1) was performed using the CisBio IP-One kit (Part number 62IPAPEB). After the 16 hour incubation, the cells were washed with HEPES buffer and 10 ul of stimulation buffer (prepared as described in the kit) is added to each well. In a separate plate, compounds were diluted in DMSO (400-fold over the final concentration in the assay well) and 25 nl was transferred via pocket tip to the appropriate well in the assay cell plate. The plates were then incubated for 60 minutes at 37 degrees. 10 ul of detection buffer (also prepared as described in the IP-One kit) was added to each well and the plates were incubated for 60 minutes in the dark. The plates were then read in a Perkin Elmer EnVision or equivalent reader able to measure FRET. Fluorescent ratio of emission at 665 and 620 nm was then converted to IP1 concentration by back calculating from an IP1 standard curve prepared at the time of the assay.

**Q.** Which EC50 does the source give for `COc1ccc(F)c(-c2ccc(C3CCc4ccc([C@H](C5CC5)[C@H](C)C(=O)O)cc4O3)cc2CN)c1` (mixture of isomers) [Example 2] here?
**A.** 2990 nM

**Q.** Which EC50 does the source give for `COc1cc(-c2ccc(C3CCc4ccc([C@H](C5CC5)[C@H](C)C(=O)O)cc4O3)cc2CN2CCC2)c(F)cn1` (mixture of isomers) [Example 10] here?
**A.** 193 nM

**Q.** How did the EC50 turn out when `COc1cc(-c2ccc(C3CCc4ccc([C@H](C5CC5)[C@H](C)C(=O)O)cc4O3)cc2CN(C)C)c(F)cn1` (stereo partly drawn) [Example 1, (2S,3R)-3-cyclopropyl-3-(2-(3-((dimethylamino)methyl)-4-(5-fluoro-2-methoxypyridin-4-yl)phenyl)chroman-7-yl)-2-methylpropanoic acid] was run?
**A.** 8.6 nM

**Q.** With `COc1cc(-c2ccc(C3CCc4ccc([C@H](C5CC5)[C@H](C)C(=O)O)cc4O3)cc2C(C)N(C)C)c(F)cn1` (some centres unmarked) [Example 3] as the molecule, how does the EC50 read?
**A.** 18 nM

These molecules were tested against T1, human GPR40 (assay: Inositol Phosphate Turnover (IP1) Assay 2). Details: HEK cells stably expressing human GPR40; 15,000 cells per well; compound acoustically transferred; CisBio IP-One kit.
Type: cell-based
Procedure, shortened: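 HEK cells stably expressing human GPR40, plated 16 h beforehand, were exposed to compound in stimulation buffer for 60 min at 37 °C. IP1 accumulation was detected by HTRF (665/620 nm ratio) after 60 min with detection reagents and converted to IP1 concentration from a same-day standard curve.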

**Q.** For `COc1cc(-c2ccc([C@@H]3CCc4ccc([C@H](C5CC5)[C@H](C)C(=O)O)cc4O3)cc2CN2CCC2(C)C)c(F)cn1` [Example 157], which EC50 is on record?
**A.** 4.2 nM

**Q.** `CCN(CC)Cc1cc([C@@H]2CCc3ccc([C@H](C4CC4)[C@H](C)C(=O)O)cc3O2)ccc1-c1cc(OC)ncc1F` [Example 159] was tested. Which EC50 did it give?
**A.** 3.3 nM

**Q.** For `COc1cc(-c2ccc([C@@H]3CCc4ccc([C@H](C5CC5)[C@H](C)C(=O)O)cc4O3)cc2CN2CCCC2(C)C)c(F)cn1` [Example 160], which EC50 is on record?
**A.** 2.5 nM

**Q.** How did the EC50 turn out when `COc1cc(-c2ccc([C@@H]3CCc4ccc([C@H](C5CC5)[C@H](C)C(=O)O)cc4O3)cc2CN2[C@H](C)CC[C@H]2C)c(F)cn1` [Example 161] was run?
**A.** 0.6 nM

**Q.** Which EC50 does the source give for `COc1cc(-c2ccc([C@@H]3CCc4ccc([C@H](C5CC5)[C@H](C)C(=O)O)cc4O3)cc2CN2C3CCC2CC3)c(F)cn1` [Example 162] here?
**A.** 5.4 nM

**Q.** Which EC50 does the source give for `COC[C@H]1CCCN1Cc1cc([C@H]2CCc3ccc([C@H](C4CC4)[C@H](C)C(=O)O)cc3O2)ccc1-c1cc(OC)ncc1F` [Example 163] here?
**A.** 3.3 nM

**Q.** With `COC[C@H]1CCCN1Cc1cc([C@@H]2CCc3ccc([C@H](C4CC4)[C@H](C)C(=O)O)cc3O2)ccc1-c1cc(OC)ncc1F` [Example 164] as the molecule, how does the EC50 read?
**A.** 1.6 nM

**Q.** `COc1cc(-c2ccc([C@H]3CCc4ccc([C@H](C5CC5)[C@H](C)C(=O)O)cc4O3)cc2CN2CCCCC2)c(F)cn1` [Example 165] was tested. Which EC50 did it give?
**A.** 3.9 nM

**Q.** Which EC50 does the source give for `COc1cc(-c2ccc([C@H]3CCc4ccc([C@H](C5CC5)[C@H](C)C(=O)O)cc4O3)cc2CN2CCCCC2(C)C)c(F)cn1` [Example 166] here?
**A.** 0.3 nM

**Q.** `COc1cc(-c2ccc([C@H]3CCc4ccc([C@H](C5CC5)[C@H](C)C(=O)O)cc4O3)cc2CN2CCCC[C@H]2C)c(F)cn1` [Example 167] was tested. Which EC50 did it give?
**A.** 2.2 nM

**Q.** `COc1cc(-c2ccc([C@H]3CCc4ccc([C@H](C5CC5)[C@H](C)C(=O)O)cc4O3)cc2CN2CCCC[C@@H]2C)c(F)cn1` [Example 168] was tested. Which EC50 did it give?
**A.** 2.9 nM

**Q.** `COc1cc(-c2ccc([C@H]3CCc4ccc([C@H](C5CC5)[C@H](C)C(=O)O)cc4O3)cc2CN2CCC(C)(C)CC2)c(F)cn1` [Example 169] was tested. Which EC50 did it give?
**A.** 1.7 nM

**Q.** Which EC50 does the source give for `COc1cc(-c2cc(F)c(C3CCc4ccc([C@H](C5CC5)[C@H](C)C(=O)O)cc4O3)cc2CN2CCCC2)ccn1` (stereo partly drawn) [Example 180, 1RS, (2S, 3R)-3-cyclopropyl-3-(2-(2-fluoro-4-(2-methoxypyridin-4-yl)-5-(pyrrolidin-1-ylmethyl)phenyl)chroman-7-yl)-2-methylpropanoic acid] here?
**A.** 41 nM
